Patent US6737407B1, “Treatment of obesity” (Metabolic Pharmaceuticals, Ltd., priority 1997, dated 2004)
Bridges are numbered along the chain shown (N, C = ends). Where no end group is shown, it is not given here. [ ]: non-standard residue; d: D form. The star is where a group is joined. Acm = CC(=O)NC*

Test system: adipose tissues from male Zucker fatty (fa/fa) rats
Test: In vitro inhibition of lipogenesis in isolated adipose tissue
Format: cell-based, rat
Settings: for In vitro lipogenesis % of control / In vitro lipogenesis Activity / In vitro lipogenesis, rate of [C14]-glucose incorporation into [C14]-lipid: peptide 0.3 μM, insulin 0.1 mU/ml; for In vitro lipogenesis, rate of [C14]-glucose incorporation into [C14]-lipid: KRB buffer; for activity according to the in vivo and in vitro assay results (in words): structure-activity summary
Method: The rate of the incorporation of exogenous [C^14]-glucose into total lipid in adipose tissue was measured as the index of anti-lipogenic activity of hGH 177-191.
Adipose tissues were sliced into segments of approximately 200 mg each and then placed in Krebs-Ringer bicarbonate (KRB) buffer (pH 7.4) containing 2% defatted BSA, and glucose (0.1 mg/ml) and gassed with 95% O2-5% CO2 at 37° C. After 1 hr preincubation, the tissues were transferred to another 2 ml of fresh media containing [C^14]-glucose (final specific activity 0.05 μCi/μmol), and 0.3 μM of hGH 177-191 in the presence or absence of insulin (0.1 mU/ml) for a further 90 min incubation (conditions as above). Then the tissues were removed, washed thoroughly with KRB buffer and lipid was extracted with 5 ml of chlorofom/methanol (2:1, v/v) The extraction solution was washed with 2 ml of MeOH-H2O solution containing 0.1% MgCl2. A 2.5 ml aliquot of the washed extraction solution was taken and transferred to scintillation vials. The [C^14] radioactivity was measured with a liquid scintillation counter. The rates of total lipid synthesis were expressed as μmol [C^14]-glucose incorporated into lipid/g tissue/hr.

| Substance | In vitro lipogenesis % of control | In vitro lipogenesis Activity | In vitro lipogenesis, rate of [C14]-glucose incorporation into [C14]-lipid [nmol/g tissue/hr] | activity according to the in vivo and in vitro assay results (in words) |
| --- | --- | --- | --- | --- |
| 9401 (LRIVQCRSVEGSCGF; listed as Homo sapiens) [Compound 9401] | 75 % of control | Active | 161 ± 10 | – |
| 9402 (LRIVQC(Acm)RSVEGSCGF; not fully specified (residue 13); listed as Homo sapiens) [Compound 9402] | 91 % of control | Inactive | 222 ± 9 | – |
| 9402 (LRIVQC(Acm)RSVEGSCGF; not fully specified (residue 13); listed as Homo sapiens) [compound 9402] | – | – | – | inactive |
| 9403 (LRKVQCRSVEGSCGF; disulfide 6-13; listed as Homo sapiens) [Compound 9403] | 69 % of control | Active | 167 ± 28 | – |
| 9404 (LRIVQCRSVEGSCGF-NH2; disulfide 6-13; N-terminus assumed; SMILES CC[C@H](C)[C@H](NC(=O)[C@H](CCCNC(=N)N)NC(=O)[C@@H](N)CC(C)C)C(=O)N[C@H](C(=O)N[C@@H](CCC(N)=O)C(=O)N[C@H]1CSSC[C@@H](C(=O)NCC(=O)N[C@@H](Cc2ccccc2)C(N)=O)NC(=O)[C@H](CO)NC(=O)CNC(=O)[C@H](CCC(=O)O)NC(=O)[C@H](C(C)C)NC(=O)[C@H](CO)NC(=O)[C@H](CCCNC(=N)N)NC1=O)C(C)C; listed as Homo sapiens) [Compound 9404] | 77 % of control | Active | 187 ± 18 | – |
| 9405 (Ac-LRIVQCRSVEGSCGF; disulfide 6-13; listed as Homo sapiens) [Compound 9405] | 68 % of control | Active | 164 ± 17 | – |
| 9406 (LRIVQCASVEGSCGF; listed as Homo sapiens) [Compound 9406] | 97 % of control | Inactive | 236 ± 17 | – |
| 9407 (LRIVQCKSVEGSCGF; disulfide 6-13; listed as Homo sapiens) [Compound 9407] | 71 % of control | Active | 174 ± 16 | – |
| 9408 (LRIVQCKSVEGSCGF; lactam 7-10; disulfide 6-13; listed as Homo sapiens) [compound 9408] | – | – | – | retains activity |
| 9410 (H-LRIVQCRSVEGSCGF; disulfide 6-13; also: desamino N-terminus; listed as Homo sapiens) [Compound 9410] | 59 % of control | Active | 143 ± 20 | – |
| 9501 (LRIVQCRSVE[dA]SC[dA]F; disulfide 6-13; listed as Homo sapiens) [Compound 9501] | 76 % of control | Active | 185 ± 6 | – |
| 9501 (LRIVQCRSVE[dA]SC[dA]F; disulfide 6-13; listed as Homo sapiens) [compound 9501] | – | – | – | activity being retained |
